Test results reported in patent US6410735B1, “1-(4-arylpiperazin-1-y1)-ω-[N-(α,ω-dicarboximido)]-alkanes useful as uro-selective α1-adrenoceptor blockers” (Ranbaxy Laboratories Limited, priority 1997, dated 2002).

Each molecule was assayed against T1, α1A-adrenoceptor (Rattus norvegicus, UniProt P43140) (assay: Receptor binding assay, [3H]prazosin, rat submaxillary membranes). Settings: rat submaxillary membranes, 0.5 nM [3H]prazosin; read-out: RBA (Ki nM) α1A.
T1 construct: from tissue; host or cells: rat submaxillary gland membranes
T1 sequence (P43140 1-466): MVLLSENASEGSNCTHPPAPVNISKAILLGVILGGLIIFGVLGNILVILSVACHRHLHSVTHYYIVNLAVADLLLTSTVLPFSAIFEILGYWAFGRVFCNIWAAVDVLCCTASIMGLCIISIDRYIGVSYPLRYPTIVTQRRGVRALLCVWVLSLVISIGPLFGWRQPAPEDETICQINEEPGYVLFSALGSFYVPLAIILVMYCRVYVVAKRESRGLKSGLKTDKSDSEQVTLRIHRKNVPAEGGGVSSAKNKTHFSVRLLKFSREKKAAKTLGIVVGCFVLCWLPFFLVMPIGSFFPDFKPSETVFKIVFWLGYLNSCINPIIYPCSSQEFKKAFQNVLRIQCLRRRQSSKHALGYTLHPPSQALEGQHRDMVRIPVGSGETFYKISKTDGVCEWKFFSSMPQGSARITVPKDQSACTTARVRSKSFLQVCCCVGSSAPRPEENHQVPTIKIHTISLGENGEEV
Method: (§1) Receptor binding assays, (RBA's) were performed for native α1-adrenoceptors. Rat submaxillary and rat liver membrane preparations were used to assess the affinity for α1A and α1B subtypes, respectively. Aliquots of membrane protein ([…]) were incubated in a final volume of […] assay buffer (50 mM Tris, 0.5 mM EDTA at pH 7.4) with 0.5 nM [^3H] prazosin for 60 mins at 28 ° C. Reaction was stopped by rapid filtration on Millipore filters. Filters were dried and bound radioactivity counted. Non-specific binding was determined in the presence of 0.3 mM prazosin.

| Structure (SMILES) | Ki |
| --- | --- |
| COc1ccc(N2CCN(CCCN3C(=O)CCC3=O)CC2)cc1 [Compound 12, 1-[4-(4-Methoxyphenyl)piperazin-1yl]-3-(2,5-dioxopyrrolidin-1yl)propane] | > 2500 nM |
| O=C1CCCC(=O)N1CCCN1CCN(c2ccc(F)cc2)CC1 [Compound 14, 1-[4-(4-Fluorophenyl)piperazin-1-yl]-3-(2,6-dioxopiperidin-1yl)propane] | 67 nM |
| O=C1CCCC(=O)N1CCCN1CCN(c2ccc(Cl)cc2)CC1 [Compound 15, 1-[4-(4-Chlorophenyl)piperazin-1-yl]-3-(2,6-dioxopiperidin-1yl)propane] | 520 nM |
| O=C1CCCC(=O)N1CCCN1CCN(c2cccc(C(F)(F)F)c2)CC1 [Compound 16, 1-[4-(3-Trifluoromethylphenyl)piperazin-1-yl]-3-(2,6-dioxopiperidin-1-yl)propane] | 345 nM |
| O=C1CCCC(=O)N1CCCN1CCN(c2ccccn2)CC1 [Compound 19, 1-[4-(2-Pyridyl)piperazin-1-yl)-3-(2,6-dioxopiperidin-1-yl)propane] | 164 nM |
| O=C1CCCC(=O)N1CCCN1CCN(c2cccc(Cl)c2)CC1 [Compound 20, 1-[4-(3-Chlorophenyl)piperazin-1-yl]-3-(2,6-dioxopiperidin-1-yl)propane] | 22 nM |
| O=C1CCCC(=O)N1CCCN1CCN(c2ncccn2)CC1 [Compound 22, 1-[4-(2-Pyrimidyl)piperazin-1-yl]-3-(2,6-dioxopiperidin-1-yl)propane] | > 2500 nM |
| COc1cccc(N2CCN(CCCN3C(=O)CCCC3=O)CC2)c1 [Compound 23, 1-[4-(3-Methoxyphenyl)piperazin-1yl]-3-(2,6-dioxopiperidin-1-yl)propane] | 2170 nM |
| COc1ccccc1N1CCN(CCCCN2C(=O)CCCC2=O)CC1 [Compound 25, 1-[4-(2-Methoxyphenyl)piperazin-1yl]-4-(2,6-dioxopiperidin-1yl)butane] | 1.6 nM |
| COc1ccccc1N1CCN(CCCN2C(=O)CC(c3ccccc3)C2=O)CC1 (stereo not drawn) [Compound 26, 1-[4-(2-Methoxyphenyl)piperazin-1yl]-3-[2,5-dioxo-3-phenyl-pyrolidin-1-yl]propane] | 30 nM |
| O=C1CCC(=O)N1CCCN1CCC(c2ccccc2)CC1 [Compound 27, 1-[4-(Phenyl)piperidin-1-yl]-3-[2,5-dioxopyrolidin-1-yl]propane] | 1300 nM |

The molecules below were run against T2, α1B-adrenoceptor (Rattus norvegicus, UniProt P15823) (assay: Receptor binding assay, [3H]prazosin, rat liver membranes). Settings: rat liver membranes, 0.5 nM [3H]prazosin; read-out: RBA (Ki nM) α1B.
T2 construct: from tissue; host or cells: rat liver membranes
T2 sequence (P15823 1-515): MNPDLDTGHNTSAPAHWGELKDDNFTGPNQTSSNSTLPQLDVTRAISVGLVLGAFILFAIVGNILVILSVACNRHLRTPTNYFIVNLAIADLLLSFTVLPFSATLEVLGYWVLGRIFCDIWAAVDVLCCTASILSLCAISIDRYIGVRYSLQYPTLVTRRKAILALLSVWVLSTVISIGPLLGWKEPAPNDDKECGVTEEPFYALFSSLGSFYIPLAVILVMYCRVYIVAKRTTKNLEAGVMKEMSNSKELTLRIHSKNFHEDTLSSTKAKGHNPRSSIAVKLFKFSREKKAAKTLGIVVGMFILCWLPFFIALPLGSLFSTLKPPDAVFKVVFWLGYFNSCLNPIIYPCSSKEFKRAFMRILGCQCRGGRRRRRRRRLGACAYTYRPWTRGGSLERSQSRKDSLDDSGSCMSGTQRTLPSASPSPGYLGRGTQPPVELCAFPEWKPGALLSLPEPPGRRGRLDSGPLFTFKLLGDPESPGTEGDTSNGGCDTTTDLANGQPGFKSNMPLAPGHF
Method: as §1

| Structure (SMILES) | Ki |
| --- | --- |
| COc1ccc(N2CCN(CCCN3C(=O)CCC3=O)CC2)cc1 [Compound 12, 1-[4-(4-Methoxyphenyl)piperazin-1yl]-3-(2,5-dioxopyrrolidin-1yl)propane] | > 2500 nM |
| O=C1CCCC(=O)N1CCCN1CCN(c2ccc(F)cc2)CC1 [Compound 14, 1-[4-(4-Fluorophenyl)piperazin-1-yl]-3-(2,6-dioxopiperidin-1yl)propane] | 192 nM |
| O=C1CCCC(=O)N1CCCN1CCN(c2ccc(Cl)cc2)CC1 [Compound 15, 1-[4-(4-Chlorophenyl)piperazin-1-yl]-3-(2,6-dioxopiperidin-1yl)propane] | 201 nM |
| O=C1CCCC(=O)N1CCCN1CCN(c2cccc(C(F)(F)F)c2)CC1 [Compound 16, 1-[4-(3-Trifluoromethylphenyl)piperazin-1-yl]-3-(2,6-dioxopiperidin-1-yl)propane] | 765 nM |
| O=C1CCCC(=O)N1CCCN1CCN(c2ccccn2)CC1 [Compound 19, 1-[4-(2-Pyridyl)piperazin-1-yl)-3-(2,6-dioxopiperidin-1-yl)propane] | > 2500 nM |
| O=C1CCCC(=O)N1CCCN1CCN(c2cccc(Cl)c2)CC1 [Compound 20, 1-[4-(3-Chlorophenyl)piperazin-1-yl]-3-(2,6-dioxopiperidin-1-yl)propane] | 113 nM |
| O=C1CCCC(=O)N1CCCN1CCN(c2ncccn2)CC1 [Compound 22, 1-[4-(2-Pyrimidyl)piperazin-1-yl]-3-(2,6-dioxopiperidin-1-yl)propane] | > 2500 nM |
| COc1cccc(N2CCN(CCCN3C(=O)CCCC3=O)CC2)c1 [Compound 23, 1-[4-(3-Methoxyphenyl)piperazin-1yl]-3-(2,6-dioxopiperidin-1-yl)propane] | 940 nM |
| COc1ccccc1N1CCN(CCCCN2C(=O)CCCC2=O)CC1 [Compound 25, 1-[4-(2-Methoxyphenyl)piperazin-1yl]-4-(2,6-dioxopiperidin-1yl)butane] | 7.5 nM |
| COc1ccccc1N1CCN(CCCN2C(=O)CC(c3ccccc3)C2=O)CC1 (stereo not drawn) [Compound 26, 1-[4-(2-Methoxyphenyl)piperazin-1yl]-3-[2,5-dioxo-3-phenyl-pyrolidin-1-yl]propane] | 600 nM |
| O=C1CCC(=O)N1CCCN1CCC(c2ccccc2)CC1 [Compound 27, 1-[4-(Phenyl)piperidin-1-yl]-3-[2,5-dioxopyrolidin-1-yl]propane] | 2000 nM |

The molecules below were run against T3, α1A-adrenoceptor (prostate) (Rattus norvegicus, UniProt P43140) (assay: In vitro functional assay, phenylephrine-induced contraction of isolated prostate). Settings: rat prostate, phenylephrine; read-out: In Vitro Functional Assay (pKB) α1A (converted).
T3 construct: Aorta, prostate and spleen tissues were isolated from urethane anaesthetized (1.5 gm/kg) male wistar rats; from tissue; host or cells: isolated prostate of male Wistar rats
T3 sequence (P43140 1-466): T1 sequence (P43140 1-466)
Type: cell-based
Source text: (§2) In order to study selectivity of action of the present compounds towards different α-adrenoceptor subtypes, the ability of these compounds to antagonize α1-adrenoceptor agonist induced contractile response of aorta (α1D), prostate (α1A) and spleen (α1B) was studied. Aorta, prostate and spleen tissues were isolated from urethane anaesthetized (1.5 gm/kg) male wistar rats. Isolated tissues were mounted in organ bath containing Krebs Henseleit buffer of the following composition (mM): NaCl 118; KCl 4.7; CaCl2 2.5; MgSO4·H2O 1.2; NaHCO3 25; KH2PO4 1.2; glucose 11.5. Buffer was maintained at 37° C. and aerated with a mixture of 95% O2 and 5% CO2. A resting tension of 2 g (aorta) or 1 g (spleen and prostate) was applied to tissues. Contractile response was monitored using a force displacement transducer and recorded on chart recorders. Tissues were allowed to equilibrate for 2 hours. At the end of equilibration period, concentration response curves to norepinephrine (aorta) and phenylephrine (spleen and prostate) were obtained in the absence and presence of the tested compound (at concentrations of 0.1, 1 and 10 μM). Antagonist affinity was calculated and expressed as PKB values in Table 1.

| Structure (SMILES) | Kb |
| --- | --- |
| O=C1CCCC(=O)N1CCCN1CCN(c2ccc(F)cc2)CC1 [Compound 14, 1-[4-(4-Fluorophenyl)piperazin-1-yl]-3-(2,6-dioxopiperidin-1yl)propane] | 0.00398 µM |
| O=C1CCCC(=O)N1CCCN1CCN(c2ccc(Cl)cc2)CC1 [Compound 15, 1-[4-(4-Chlorophenyl)piperazin-1-yl]-3-(2,6-dioxopiperidin-1yl)propane] | 0.2 µM |
| O=C1CCCC(=O)N1CCCN1CCN(c2cccc(C(F)(F)F)c2)CC1 [Compound 16, 1-[4-(3-Trifluoromethylphenyl)piperazin-1-yl]-3-(2,6-dioxopiperidin-1-yl)propane] | 0.316 µM |
| O=C1CCCC(=O)N1CCCN1CCN(c2ccccn2)CC1 [Compound 19, 1-[4-(2-Pyridyl)piperazin-1-yl)-3-(2,6-dioxopiperidin-1-yl)propane] | 0.398 µM |
| O=C1CCCC(=O)N1CCCN1CCN(c2cccc(Cl)c2)CC1 [Compound 20, 1-[4-(3-Chlorophenyl)piperazin-1-yl]-3-(2,6-dioxopiperidin-1-yl)propane] | 0.0316 µM |
| O=C1CCCC(=O)N1CCCN1CCN(c2ncccn2)CC1 [Compound 22, 1-[4-(2-Pyrimidyl)piperazin-1-yl]-3-(2,6-dioxopiperidin-1-yl)propane] | 0.398 µM |

Each molecule was assayed against T4, α1B-adrenoceptor (spleen) (Rattus norvegicus, UniProt P15823) (assay: In vitro functional assay, phenylephrine-induced contraction of isolated spleen). Settings: rat spleen, phenylephrine; read-out: In Vitro Functional Assay (pKB) α1B (converted).
T4 construct: Aorta, prostate and spleen tissues were isolated from urethane anaesthetized (1.5 gm/kg) male wistar rats; from tissue; host or cells: isolated spleen of male Wistar rats
T4 sequence (P15823 1-515): T2 sequence (P15823 1-515)
Type: cell-based
Source text: as §2

| Structure (SMILES) | Kb |
| --- | --- |
| O=C1CCCC(=O)N1CCCN1CCN(c2ccc(F)cc2)CC1 [Compound 14, 1-[4-(4-Fluorophenyl)piperazin-1-yl]-3-(2,6-dioxopiperidin-1yl)propane] | 0.0398 µM |
| O=C1CCCC(=O)N1CCCN1CCN(c2ccc(Cl)cc2)CC1 [Compound 15, 1-[4-(4-Chlorophenyl)piperazin-1-yl]-3-(2,6-dioxopiperidin-1yl)propane] | 1 µM |

What follows are molecules tested against T5, α1D-adrenoceptor (aorta) (Rattus norvegicus, UniProt P23944) (assay: In vitro functional assay, norepinephrine-induced contraction of isolated aorta). Settings: rat aorta, norepinephrine; read-out: In Vitro Functional Assay (pKB) α1D (converted).
T5 construct: Aorta, prostate and spleen tissues were isolated from urethane anaesthetized (1.5 gm/kg) male wistar rats; from tissue; host or cells: isolated aorta of male Wistar rats
T5 sequence (P23944 1-561): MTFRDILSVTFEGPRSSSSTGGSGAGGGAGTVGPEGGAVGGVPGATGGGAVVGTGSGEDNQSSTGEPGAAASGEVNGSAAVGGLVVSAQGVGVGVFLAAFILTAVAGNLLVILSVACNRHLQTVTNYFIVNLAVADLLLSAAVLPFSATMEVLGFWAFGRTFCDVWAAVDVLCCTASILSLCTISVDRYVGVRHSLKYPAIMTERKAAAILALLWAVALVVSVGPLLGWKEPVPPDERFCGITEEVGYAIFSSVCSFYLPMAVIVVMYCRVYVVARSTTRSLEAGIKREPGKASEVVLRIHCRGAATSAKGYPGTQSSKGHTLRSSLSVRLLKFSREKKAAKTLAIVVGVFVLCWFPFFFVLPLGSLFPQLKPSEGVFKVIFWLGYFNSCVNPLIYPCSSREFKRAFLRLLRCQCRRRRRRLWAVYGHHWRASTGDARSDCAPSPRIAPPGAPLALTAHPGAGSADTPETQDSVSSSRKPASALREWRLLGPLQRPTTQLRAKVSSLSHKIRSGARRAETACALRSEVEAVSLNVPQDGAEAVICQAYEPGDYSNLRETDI
Type: cell-based
Source text: as §2

| Structure (SMILES) | Kb |
| --- | --- |
| O=C1CCCC(=O)N1CCCN1CCN(c2ccc(F)cc2)CC1 [Compound 14, 1-[4-(4-Fluorophenyl)piperazin-1-yl]-3-(2,6-dioxopiperidin-1yl)propane] | 0.0794 µM |
| O=C1CCCC(=O)N1CCCN1CCN(c2ccc(Cl)cc2)CC1 [Compound 15, 1-[4-(4-Chlorophenyl)piperazin-1-yl]-3-(2,6-dioxopiperidin-1yl)propane] | 0.631 µM |
| O=C1CCCC(=O)N1CCCN1CCN(c2cccc(C(F)(F)F)c2)CC1 [Compound 16, 1-[4-(3-Trifluoromethylphenyl)piperazin-1-yl]-3-(2,6-dioxopiperidin-1-yl)propane] | 0.126 µM |
| O=C1CCCC(=O)N1CCCN1CCN(c2ccccn2)CC1 [Compound 19, 1-[4-(2-Pyridyl)piperazin-1-yl)-3-(2,6-dioxopiperidin-1-yl)propane] | 0.2 µM |
| O=C1CCCC(=O)N1CCCN1CCN(c2cccc(Cl)c2)CC1 [Compound 20, 1-[4-(3-Chlorophenyl)piperazin-1-yl]-3-(2,6-dioxopiperidin-1-yl)propane] | 0.0251 µM |
| O=C1CCCC(=O)N1CCCN1CCN(c2ncccn2)CC1 [Compound 22, 1-[4-(2-Pyrimidyl)piperazin-1-yl]-3-(2,6-dioxopiperidin-1-yl)propane] | 0.1 µM |
